Where two headings read alike, the source gives them in different places. Peptide text beside a SMILES is read from it.
What was measured:
HIV-1NL4-3 [1] = experiment: Inhibition of HIV-1 NL4-3 replication in U87.CD4.CXCR4 cells (RT activity in supernatant); assay type: cell-based
Method: Drug sensitivity assays were performed on U87.CD4.CXCR4/CCR5 cells and in peripheral blood mononuclear cells (PBMC). Peptidomimetics or control drugs were added to cells to yield final concentrations between 100 µM and 10 nM. Cells were incubated with drug for 1 h and exposed to the virus at a multiplicity of infection of 0.001, incubated with the virus for 24 h, and input virus washed away. Supernatant aliquots were removed and virus production was quantified by reverse transcriptase assay. Virus production at each drug concentration was normalized and the relative values were plotted versus drug concentration to determine 50% inhibitory concentrations (IC50). Variations on these drug susceptibility assays are defined in each figure and related text. For the time-of-drug-inhibition experiments, HIV-1 was spinonculated onto U87-CD4/CCR5 cells as previously described. The cells were washed twice with cold phosphate buffered saline (PBS) to remove unbound virions. Cells were resuspended in cold medium and split into 96-well plates (50 µl/well). […] Cells were incubated for 72 h and then treated with lysis buffer and luciferase activity was determined. The same procedure was utilized for the time-of-drug-addition experiment involving cell-to-cell fusion. […]

HIV NL4-3 = experiment: Inhibition of HIV NL4-3 in PHA/IL-2 stimulated human PBMC; assay type: cell-based, HIV-1; conditions: Human immunodeficiency virus 1, NL43; human PBMC stimulated with PHA/IL-2; RT activity in supernatant at 8 and 10 days post-infection
Method: Figure 2 Testing the susceptibility of HIV-1 to inhibition by Tat peptidomimetics. (A) Comparison of the relative inhibition of the HIV-1 NL4-3 laboratory strain by three lead Tat peptidomimetics. Virus production in cell free supernatant was measured using an endogenous RT assay. […] (D) L-50 inhibition of viral replication of three primary CCR5-tropic HIV-1 isolates measured in U87.CD4.CCR5 cells (A1 is the subtype A Rawandan isolate A1-92RW009, B5 is the subtype B isolate B5-91US056 from the USA and C5 is the subtype C isolate C5-97ZA003 from South Africa) and of CXCR4-tropic strains (D1 is the Ugandan subtype D isolate D1-92UG021, E6 is the subtype A/E circulating recombinant isolate CRF01_AE from Thailand) as well as the laboratory strain HIV-1NL4-3 measured in U87.CD4.CXCR4 cell cultures. […] (E) Inhibition of HIV NL4-3 was also measure in human peripheral blood mononuclear cells stimulated with PHA/IL-2. […] Virus production was measured at 8 and 10 days post-infection by the RT activity in the supernatant (cpm/mL).
Drug sensitivity assays were performed on U87.CD4.CXCR4/CCR5 cells and in peripheral blood mononuclear cells (PBMC). […] Supernatant aliquots were removed and virus production was quantified by reverse transcriptase assay. […] Cells were incubated for 72 h and then treated with lysis buffer and luciferase activity was determined. […]

HIV-1Luc-AM = assay type: cell-based
[2] = system: murine leukemia virus (MLV); assay type: cell-based
[3] = system: HIV-1NL4-3 carrying firefly luciferase; assay type: cell-based; conditions: for t1/2, time of drug addition that maintains 50% inhibition: AMD3100 10 µM, T20 10 µM, 3TC 100 µM, Raltegravir 10 µM, DRB 50 µM
[4] = system: Tat/Rev-dependent luciferase after 293T (HIV-1 Env) / U87.CD4.CXCR4 cell fusion; conditions: for t1/2, time of drug addition that maintains 50% inhibition, cell-to-cell fusion: monophasic, Tat/Rev-dependent luciferase in cell lysates, triplicate
[5] = system: Tat-dependent transcription from HIV-1 LTR; experiment: Tat-dependent transactivation in cell-free transcription; assay type: biochemical
[6] = system: Tat-mediated transactivation of HIV-1 LTR; experiment: LTR-luciferase reporter + Tat in 293T cells (Figure 3B); assay type: cell-based; conditions: 10 µM
CMV promoter = CMV promoter luciferase control reporter in 293T cells; assay type: cell-based
HIV-1 LTR promoter = experiment: pLTR.LUC reporter alone or co-transfected with HIV-1NL4-3 in 293T cells (Figure 4); assay type: cell-based
HIV-1NL4-3 [7] = experiment: Infection of U87.CD4.CXCR4 cells with supernatants of L-50-treated 293T transfections (Figure 4D); assay type: cell-based
Method: To test whether the virus released from transfected cells could be inhibited by L-50 under conditions of multiple-cycle growth, virus-containing supernatants from 293T transfections (containing L-50) were used to infect U87.CD4.CXCR4 cells (which support multiple rounds of HIV-1 replication) and viral progeny were measured 10 days post-infection. […] Removal of L50 from virus was attempted by pelleting virus from supernatant of L50-treated cells transfected with NL4-3. It is important to note that virus production was already decreased by L50 at least 50% from transfected cells.

[8] = system: (-) strand strong stop DNA synthesis by recombinant HIV-1 RT (p66/p51) on wild type TAR template; experiment: Reconstituted in vitro reverse transcription, wild type R_U5_pbs RNA template; assay type: biochemical
From the text: This assay measures the synthesis of (-) strand strong stop DNA by recombinant HIV-1 RT (p66/p51) from an 18 nt DNA primer, pre-annealed to an HIV-1 RNA template encompassing the repeat (R), 5′ unique sequence (U5), and the primer binding sequence (PBS) [49].
HIV-1 RNA representing the wild type R, U5, pbs, and uncoding sequence (270 nt) (wt R_U5_pbs RNA) was produced by in vitro T3 transcription (T3 MegaScript, Ambion) from a PCR product (with T3 extended primer) derived from NL4-3. […] The DNA primer (18 nt), complementary to the primer binding sequence (3′ end of tRNA^Lys,3), was annealed to the template as described [78]. The DNA primer was annealed to the various HIV-1 RNA templates by denaturation and annealing conditions previously described [78]. […] Reactions were incubated at 37°C for 45 min and then quenched with formamide EDTA loading buffer [78] for subsequent electrophoresis on a 8% denaturing polyacrylamide gel. Gels were autoradiographed and analyzed with a BioRad phosphorimager.

[9] = system: (-) strand strong stop DNA synthesis by HIV-1 RT on mutant TAR template; experiment: Reconstituted in vitro reverse transcription, mutant TAR RNA template; assay type: biochemical; conditions: 8 µM
From the text: To determine if L-50 inhibition of reverse transcription was dependent on the high affinity Tat-binding site located at the TAR bulge, mutations that inactivate Tat-binding were introduced into the RNA template (Figure 9A).
The mutant TAR RNA transcript (with mutations 5′-UCUG-3′ to 5′-UGGU-3′ in the bulge) was generated by T3 transcription from a PCR product with the forward primer having the nt substitutions for site-directed mutagenesis. […] The DNA primer (18 nt), complementary to the primer binding sequence (3′ end of tRNA^Lys,3), was annealed to the template as described [78]. The DNA primer was annealed to the various HIV-1 RNA templates by denaturation and annealing conditions previously described [78]. […] Reactions were incubated at 37°C for 45 min and then quenched with formamide EDTA loading buffer [78] for subsequent electrophoresis on a 8% denaturing polyacrylamide gel. Gels were autoradiographed and analyzed with a BioRad phosphorimager.

HIV-1 TAR = conditions: cited from earlier work
From the text: Linear peptide derivatives have been used previously to target TAR RNA and block Tat binding, [17], [20], [21] but their utility was limited by conformational flexibility which allowed non-specific RNA binding. To avoid this problem we have developed conformationally constrained mimics of HIV-1 Tat [24]–[27] based on the structure of the BIV (Bovine Immunodeficiency Virus) Tat-TAR complex, [29] (Figure 1). Specifically, we constructed a series of ß-hairpin mimics with 12-residue loops on a heterochiral D-Pro-L-Pro dipeptide scaffold. This D-Pro-L-Pro scaffold strongly ... || Our design of inhibitors of the TAR RNA-Tat protein interaction started with the assumption that constrained peptidomimetics would provide effective rationale to block the relatively large interfaces formed between the viral protein and its cognate RNA [24]–[27]. The D-Pro-L-Pro template restricts pharmacophores into planar ß-hairpin structures with side chains emerging from each side. […] Specific and high affinity binding allow ...

BIV TAR RNA = conditions: Discussion; cited from earlier work
From the text: Our design of inhibitors of the TAR RNA-Tat protein interaction started with the assumption that constrained peptidomimetics would provide effective rationale to block the relatively large interfaces formed between the viral protein and its cognate RNA [24]–[27]. The D-Pro-L-Pro template restricts pharmacophores into planar ß-hairpin structures with side chains emerging from each side. […] Specific and high affinity binding allow ...

[10] = system: HIVNL4-3 transcription / virus production; experiment: Single-cycle growth assay, 293T cells transfected with pNL4-3 (Figure 3C); conditions: 50 µM; 293T cells transfected with HIVNL4-3; monitored by RT activity
[11] = system: HIV-1NL4-3 carrying firefly luciferase; conditions: cited from earlier work
From the text: There is also evidence that Tat plays a role in viral reverse transcription, although much of this work has been controversial. Loss of function Tat mutants have been reported to impair reverse transcription 3- to 5-fold compared to wild type HIV-1 both in infected T cells and in endogeneous reverse transcription reactions, [69]. Tat-mediated RNA secondary structure remodeling may facilitate obligatory strand transfers during viral DNA synthesis by reverse transcriptase. However, it is possible to create replication-competent viruses where the TAR RNA sequence is replaced by a ...

[12] = U87.CD4.CXCR4 cells, Tat-independent SV40-driven reporter
[13] = synchronized infection, luciferase at 72 h, triplicate
[14] = L50 250 µM, synchronized infection, luciferase at 72 h, triplicate

**Q.** What does the source list for `Nc1ccn([C@@H]2CS[C@H](CO)O2)c(=O)n1` [3TC]?
**A.** IC50 (HIV-1NL4-3 [1]; Human immunodeficiency virus 1, virus production by RT assay, MOI 0.001): 0.12 ± 0.03 µM; IC50 (HIV NL4-3): 0.01 µM; Luciferase expression in HIV-1Luc-AM infected cells (HIV-1Luc-AM; [12]): efficiently inhibited; Inhibition of MLV replication (words, Discussion) [2]: blocked MLV replication

**Q.** For `c1cc(CN2CCCNCCNCCCNCC2)ccc1CN1CCCNCCNCCCNCC1` [AMD3100, reference compound], which “t1/2, time of drug addition that maintains 50% inhibition” value [3, 13] is on record?
**A.** 0.77 h

**Q.** And the “Inhibition of cell-to-cell fusion” value [4]?
**A.** highly sensitive to inhibition

**Q.** For `Cc1cn([C@H]2C[C@H](N=[N+]=[N-])[C@@H](CO)O2)c(=O)[nH]c1=O` [AZT], which “Inhibition of MLV replication (words, Discussion)” value [2] is on record?
**A.** blocked MLV replication

**Q.** What about the “Inhibition of MLV replication” value ([2]; 100 µM) of the same molecule?
**A.** completely blocked

**Q.** Which results are given for `OC[C@H]1O[C@@H](n2cnc3cc(Cl)c(Cl)cc32)[C@H](O)[C@@H]1O` [DRB, 5,6-dichloro-1-ß-D-ribobenzimidazole, reference compound]?
**A.** t1/2, time of drug addition that maintains 50% inhibition [3, 13]: 35.3 h; Luciferase expression in HIV-1Luc-AM infected cells (HIV-1Luc-AM; [12]): efficiently inhibited; t1/2, time of drug addition that maintains 50% inhibition, cell-to-cell fusion [4]: 11.3 h

**Q.** Which “Inhibition of HIV-1NL4-3 replication” value (HIV-1NL4-3 [1]; Figure 2A) does the source give for `CC[C@H](C)[C@@H]1NC(=O)[C@H](CCCNC(=N)N)NC(=O)[C@H](CCCNC(=N)N)NC(=O)[C@H](CCCCN)NC(=O)CNC(=O)[C@H](CCCNC(=N)N)NC(=O)[C@H]([C@@H](C)O)NC(=O)[C@H](CCCNC(=N)N)NC(=O)[C@H](C(C)C)NC(=O)[C@H](CCCNC(=N)N)NC(=O)[C@@H]2CCCN2C(=O)[C@H]2CCCN2C(=O)[C@H](CCCNC(=N)N)NC(=O)[C@H](CCCNC(=N)N)NC1=O` [L-50] (HELM PEPTIDE1{R.V.R.T.R.G.K.R.R.I.R.R.[dP].P}$PEPTIDE1,PEPTIDE1,1:R1-14:R2$$$V2.0) here?
**A.** able to inhibit replication

**Q.** What about the IC50 ([5]; cell-free transcription, nuclear extract, recombinant Tat, 20 min at 30°C, read-out: IC50, decrease of full-length transcripts (ρ)) of the same molecule?
**A.** 0.05 µM

**Q.** What about the “Production of short transcripts (τ)” value ([5]; internal control for non-specific inhibition of transcription) of the same molecule?
**A.** largely unaffected

**Q.** And the “Reduction of Tat-mediated transactivation” value [6]?
**A.** 53%

**Q.** And the “Reduction of transcription from control CMV promoter” value (CMV promoter; 10 µM, 293T cells)?
**A.** 12%

**Q.** And the “Reduction of CMV promoter-driven luciferase activity” value (CMV promoter; 50 µM, 293T cells cotransfected with HIVNL4-3)?
**A.** less than 5%

**Q.** And the “CMV promoter-driven luciferase expression with HIV-1NL4-3” value (CMV promoter; 293T cells, Figure 4B)?
**A.** not significantly inhibited

**Q.** What about the “Decrease in luciferase expression (pLTR.LUC + HIV-1NL4-3)” value (HIV-1 LTR promoter; 200 µM, 293T cells, p = 0.03, N = 5) of the same molecule?
**A.** 1.7 fold

**Q.** What about the “HIV-1 virion expression” value (HIV-1 LTR promoter; 200 µM, RT activity in cell-free supernatant of transfected 293T cells) of the same molecule?
**A.** modest, but reproducible reduction

**Q.** And the “Luciferase expression in cells transfected with either reporter plasmid alone” value (HIV-1 LTR promoter; 293T cells, no Tat)?
**A.** did not inhibit

**Q.** What about the “Decrease of virus production from transfected cells” value (HIV-1NL4-3 [7]; 293T cells transfected with NL4-3) of the same molecule?
**A.** at least 50%

**Q.** And the “Viral progeny 10 days post-infection” value (HIV-1NL4-3 [7]; U87.CD4.CXCR4 cells infected with virus made in the presence of L-50)?
**A.** No measurable viral progeny

**Q.** What about the “t1/2, first (early) phase of biphasic inhibition” value [3, 14] of the same molecule?
**A.** 1.8 h

**Q.** And the “t1/2, second (late) phase of biphasic inhibition” value [3, 14]?
**A.** 35.7 h

**Q.** And the “Block of viral replication in the initial inhibitory phase” value ([3]; added up to approximately 2 h post infection)?
**A.** ~100%

**Q.** And the “Luciferase expression in HIV-1Luc-AM infected cells” value (HIV-1Luc-AM)?
**A.** efficiently blocked

**Q.** What about the “Inhibition of MLV” value [2] of the same molecule?
**A.** did not inhibit

**Q.** And the “Inhibition of MLV replication (words, Discussion)” value [2]?
**A.** did not

**Q.** What about the “Inhibition of (−) strong stop synthesis on the wild type template” value ([8]; 8 µM) of the same molecule?
**A.** 80%

**Q.** And the IC50 ([8]; read-out: IC50, inhibition of (−) strand strong stop DNA synthesis (as printed in picture of Figure 8B))?
**A.** 5.5 ± 0.57 µM

**Q.** And the IC50 ([8]; recombinant HIV-1 RT, 18 nt DNA primer, RNA template ∼2 µM, 37°C 45 min, triplicate, read-out: IC50, inhibition of (−) strand strong stop DNA synthesis)?
**A.** 5.5 ± 0.57 µM

**Q.** What about the “Inhibition of (−) strong stop DNA synthesis on template with mutations in the TAR L-50 binding site” value [9] of the same molecule?
**A.** less than 10%

**Q.** What about the “Affinity for HIV-1 TAR” value (HIV-1 TAR; Discussion) of the same molecule?
**A.** nanomolar affinities

**Q.** What about the Kd (HIV-1 TAR; in vitro) of the same molecule?
**A.** 0.001 µM

**Q.** And the “Inhibition of cell-to-cell fusion” value [4]?
**A.** no measurable inhibition

**Q.** What about the “t1/2, time of drug addition that maintains 50% inhibition, cell-to-cell fusion” value [4] of the same molecule?
**A.** 8.2 h

**Q.** What about the “Discrimination against BIV TAR RNA sequence” value (BIV TAR RNA) of the same molecule?
**A.** effectively discriminated

**Q.** What about the “Inhibition of production of the viral RNA” value [10] of the same molecule?
**A.** 76%

**Q.** What does the source list for `Cc1ccnc2c1NC(=O)c1cccnc1N2C1CC1` [NVP]?
**A.** IC50 (HIV NL4-3): 0.065 µM; t1/2 of nevirapine in time-of-drug-addition [11]: ~7 h

**Q.** Which “t1/2, time of drug addition that maintains 50% inhibition” value [3, 13] does the source give for `Cc1nnc(C(=O)NC(C)(C)c2nc(C(=O)NCc3ccc(F)cc3)c(O)c(=O)n2C)o1` [Raltegravir, reference compound] here?
**A.** 11.5 h

Reference: publication PMC3098202, “Inhibition of Both HIV-1 Reverse Transcription and Gene Expression by a Cyclic Peptide that Binds the Tat-Transactivating Response Element (TAR) RNA” (PLoS Pathogens, 2011)
